Series [1] is described as follows: Glutathione reactivity assessed as half life of compound at 50 uM measured over 18 hrs by LC-UV method. It is filed as physicochemical. The note with it: glutathione solution (chemical reactivity test).
Series [2] concerns the target C-C chemokine receptor type 2 (Homo sapiens, UniProt P41597). Briefly: Antagonist activity at human C-C chemokine receptor type 2 expressed in THP-1 cells assessed as inhibition of CCL2-induced calcium flux preincubated for 10 mins followed by CCL2 addition by Fluo-4 dye based FLIPR assay. Format: functional, cell-based. For orientation: Calcium flux is commonly read through the fluorescence of an indicator in the cells.

Series [3] is described as follows: Glutathione reactivity at 50 uM measured over 18 hrs by LC-UV method.
Series [4] concerns the target T1, C-C chemokine receptor type 2 (Rattus norvegicus, UniProt O55193).
T1 sequence (O55193 whole entry): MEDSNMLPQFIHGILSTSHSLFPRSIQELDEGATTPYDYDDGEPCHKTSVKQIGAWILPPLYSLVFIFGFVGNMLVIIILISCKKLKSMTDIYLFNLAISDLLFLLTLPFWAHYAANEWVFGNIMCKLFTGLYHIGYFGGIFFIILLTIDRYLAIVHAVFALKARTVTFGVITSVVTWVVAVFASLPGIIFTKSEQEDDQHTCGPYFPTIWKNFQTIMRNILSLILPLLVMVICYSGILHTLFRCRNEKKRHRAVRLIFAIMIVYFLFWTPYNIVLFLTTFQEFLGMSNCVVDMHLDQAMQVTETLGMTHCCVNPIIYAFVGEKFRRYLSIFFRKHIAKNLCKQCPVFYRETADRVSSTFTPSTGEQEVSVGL
Briefly: Antagonist activity at rat C-C chemokine receptor type 2 assessed as inhibition of CCL2-induced calcium flux. It is filed as functional.

14 compounds from ChEMBL document CHEMBL3769374, “Novel N-thiazolyl piperazine-1-carboxamide CCR2 antagonists investigation of an unexpected reaction with glutathione” (Medchemcomm, 2015) can be followed below.

As a reminder, the half-life is how long it takes for the measured level to halve. The IC50 is the concentration that gives 50% inhibition.

A value given as a limit tells only on which side of the number the result lay.

Chain of C-C chemokine receptor type 2 (Homo sapiens, UniProt P41597) (P41597 whole entry): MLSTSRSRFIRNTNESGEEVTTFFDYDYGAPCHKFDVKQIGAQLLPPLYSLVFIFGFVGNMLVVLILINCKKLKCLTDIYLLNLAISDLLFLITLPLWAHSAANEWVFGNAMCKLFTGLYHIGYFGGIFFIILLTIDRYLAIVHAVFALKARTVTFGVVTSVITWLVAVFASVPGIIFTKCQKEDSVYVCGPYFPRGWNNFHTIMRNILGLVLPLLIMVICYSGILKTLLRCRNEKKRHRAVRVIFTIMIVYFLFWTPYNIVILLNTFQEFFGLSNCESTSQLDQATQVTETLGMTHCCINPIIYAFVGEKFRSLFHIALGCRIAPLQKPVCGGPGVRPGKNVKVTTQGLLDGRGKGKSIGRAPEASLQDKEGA

On to `O=[N+]([O-])c1ccc(CCl)cc1`, for which the half-life at 50 µM in series [1] was 3.6 h. In the case of `CC(C)(C)N1CCN[C@@H](C(=O)N2CCN(C(=O)Nc3ncc(F)s3)CC2)C1`, the 50% inhibitory concentration (IC50) in series [2] came to 9.2 nM. Besides, in series [3], the Drug metabolism entry is “Metabolite not detected”. `Cc1nc(NC(=O)N2CCN(C(=O)[C@H]3CN(C(C)(C)C)CCN3)CC2)sc1Br`: the 50% inhibitory concentration (IC50) in series [2] is less than 0.45 nM. As to `Cc1nc(NC(=O)N2CCN(C(=O)[C@H]3CN(C(C)(C)C)CCN3)CC2)sc1Cl`, the concentration for half-maximal inhibition (IC50) in series [2] was 0.65 nM. Regarding `COc1sc(NC(=O)N2CCN(C(=O)[C@H]3CN(C(C)(C)C)CCN3)CC2)nc1C`, the 50% inhibitory concentration (IC50) in series [2] was 41 nM. In series [3], the Drug metabolism result is recorded as “Metabolite not detected”.

In the case of `CCc1nc(NC(=O)N2CCN(C(=O)[C@H]3CN(C(C)C)CCN3)CC2)sc1Cl`, the half-inhibitory concentration (IC50) in series [2] was determined as 1.7 nM. In the case of `CC(=O)Nc1nc(C)c(Br)s1`, the Drug metabolism result in series [3] is “Metabolite not detected”. For the compound `CC(C)(C)N1CCN[C@@H](C(=O)N2CCN(C(=O)Nc3ncc(Cl)s3)CC2)C1`, the IC50 in series [2] came out at 7.4 nM. For the same compound, the Drug metabolism result in series [3] is reported as “Metabolite not detected”. For the compound `CC(C)c1nc(NC(=O)N2CCN(C(=O)[C@H]3CN(C(C)C)CCN3)CC2)sc1Cl`, the 50% inhibitory concentration (IC50) in series [2] is 1.2 nM. For the compound `CC(C)(C)N1CCN[C@@H](C(=O)N2CCN(C(=O)Nc3nc(C4CC4)c(Cl)s3)CC2)C1`, the IC50 in series [2] is less than 0.45 nM. As to `CC(C)(C)N1CCN[C@@H](C(=O)N2CCN(C(=O)Nc3nc(C4CC4)cs3)CC2)C1`, the IC50 in series [2] is 1.1 nM. Also, the Drug metabolism entry in series [3] is recorded as “Metabolite not detected”. For `CC(C)(C)N1CCN[C@@H](C(=O)N2CCN(C(=O)Nc3nc(C(F)(F)F)c(Cl)s3)CC2)C1`, the half-inhibitory concentration (IC50) in series [4] was found to be 1.3 nM; in series [2], 0.13 nM. For the same compound, the Drug metabolism entry in series [3] is reported as “Metabolite not detected”.

`CC(C)N1CCN[C@@H](C(=O)N2CCN(C(=O)Nc3nc(C(C)(C)C)c(F)s3)CC2)C1`: in series [2], the IC50 turned out to be 2.7 nM. Also, in series [3], the Drug metabolism entry is given as “Metabolite not detected”.

As to `CC(C)N1CCN[C@@H](C(=O)N2CCN(C(=O)Nc3nc(C(C)(C)C)c(Cl)s3)CC2)C1`, in series [2], the IC50 came out at 2.3 nM.
